In test [1] the target is T1, H2 -receptor (Cavia porcellus, UniProt P47747).
T1 construct: The right atria of Males Charles River guinea-pigs; from tissue; host or cells: isolated right atria of male Charles River guinea-pigs
As to the kind of experiment: In vitro H2 antagonism: histamine-induced heart rate increase in isolated guinea-pig right atria. Format: cell-based. Conditions: at 10^-4, 10^-5 M.
Procedure: The right atria of Males Charles River guinea-pigs (250-325 gm), trimmed of extraneous tissues is suspended in a bath at a 1.0 g tension load between an anchor and a Grass Model FT03 force displacement transducer which is coupled to a Beckman Dynograph recorder. The Krebs-Henseleit bath is oxygenated (95% O2 -5% CO2) and maintained at 32° C. After establishing a regular pattern of spontaneous activity over one hour, cumulative doses of histamine are introduced into the bath and the maximal heart rate increase recorded after each addition to establish a response control.
Then the tissue is washed, returned to rest rates and the compound being treated is introduced into the bath. Thirty minutes later the histamine dose-response study is repeated. The response to histamine in the presence of an antagonist differs from that obtained in the absence of antagonist and the log of the ratio of differences is platted against the log concentration of antagonist for each of several concentrations from which the apparent dissociation constant (pA2) is calculated.

Test [2] relates to H2 receptor. Conditions: cited from earlier work.
The test system of test [3] is histamine induced gastric acid secretion. Conditions: dog; cited from earlier work.

SMILES strings stand for the structures.

We go through four molecules from patent US4461900A, “4,5-Dihydrothiadiazole 1,1-dioxide derivatives” (American Home Products Corporation, priority 1983, dated 1984).

T1 sequence (P47747 whole entry): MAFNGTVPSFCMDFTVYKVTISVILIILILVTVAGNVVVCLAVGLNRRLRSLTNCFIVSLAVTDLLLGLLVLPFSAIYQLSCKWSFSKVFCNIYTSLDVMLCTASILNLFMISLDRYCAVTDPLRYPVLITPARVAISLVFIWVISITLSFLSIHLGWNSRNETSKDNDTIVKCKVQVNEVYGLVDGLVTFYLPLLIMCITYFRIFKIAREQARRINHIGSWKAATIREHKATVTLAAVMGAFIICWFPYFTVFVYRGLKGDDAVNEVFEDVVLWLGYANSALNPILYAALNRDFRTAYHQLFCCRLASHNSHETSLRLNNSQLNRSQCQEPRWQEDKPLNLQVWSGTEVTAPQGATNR

Regarding `CN(C)Cc1ccc(CSCCNC2=NS(=O)(=O)CN2)o1` [Example 1, N-[2-[[[5-[(DIMETHYLAMINO)METHYL]-2-FURANYL]METHYL]THIO]ETHYL]-4,5-DIHYDRO- 1,2,4-THIADIAZOL-3-AMINE 1,1-DIOXIDE], in test [1], the “H2 antagonism (activity at stated concentrations)” value is listed as “active”.
For `C#CCNC(=NC#N)NCCSCc1nc[nH]c1C` [Etintidine], the “Potency as H2 -receptor antagonist relative to cimetidine” value in test [2] is reported as “more potent than cimetidine”.
Regarding `CNC(=C[N+](=O)[O-])NCCSCc1ccc(CN(C)C)o1` [Ranitidine], the “Potency relative to cimetidine in blocking histamine induced gastric acid secretion” value in test [3] is “about 5 times”.
As for `CNC(=NC#N)NCCSCc1csc(N=C(N)N)n1` [Tiotidine], in test [2] (both in vitro and in vivo studies), the “Potency relative to cimetidine in H2 receptor antagonism” value is “at least ten”.
